Measured values: patent publication US12099068B2, “Biomarkers for graft-versus-host disease” (Incyte Corporation, priority 2018, dated 2024)
Where “and” joins values, the source holds several entries; their conditions need not be identical. Identical values can stand only once. Where no end group is shown, it is not given here.

Tests used:
Assay type in all cases: in vivo, human
[1] = test system: plasma proteins; experiment: Proteins of Table 11 stably expressed in complete responders between days 1 and 28, Example 5 (Table 12); details: between baseline (Day 1) and Day 28
Method: (§1) Due to the limited sample size, steroid-naive (N=10) and steroid-refractory (N=18) patients were combined for further analysis. Broad proteomic analysis of over 1000 proteins was conducted by OLINK Proteomics (Watertown, MA) using a proximity extension assay as described by the manufacturer. Data are presented as normalized protein expression (NPX) in log 2 scale. Statistical differences were evaluated using unpaired and paired t tests, one-way […] (ANOVA), and Pearson Correlation. Significance was conferred when P<0.05.

[2] = test system: plasma proteins; experiment: Plasma proteins modulated between baseline and day 28 in responders (CR, VGPR, PR; n = 19), Example 6 (Table 13); details: for Fold Change, Decreased Expression from Baseline to Day 28 / Fold Change, Increased Expression from Baseline to Day 28: plasma protein (OLINK NPX), responders (CR, VGPR, PR; n = 19), itacitinib 200 mg or 300 mg QD with corticosteroids, day 28 vs baseline
Method: as §1
Longitudinal differences in protein expression were analyzed by evaluating plasma samples from baseline/screening and day 28.

[3] = test system: subjects with aGvHD; experiment: Parallel-cohort phase 1 trial, clinical response by CIBMTR response criteria at day 28
Text: A broad proteomic analysis identified predictive, prognostic, and pharmacodynamic biomarkers of response to the combination treatment.
Ten steroid-naive and eighteen steroid-refractory subjects with aGvHD were enrolled in the clinical trial. Plasma samples were collected from all 28 subjects prior to treatment (screening/baseline) and at day 28 following treatment. All subjects provided written consent prior to enrollment and sample collection. Based on the Center for International Blood and Marrow Transplant Research (CIBMTR) response criteria at day 28, subjects were separated into responders and non-responders. Responders included complete responders (CR; n=10), very good partial responders (VGPR; n=1), and partial responders (PR; n=8). Non-responders included mixed responders (n=2) and progressive disease/death (PD/Death; n=7).
as §1

[4] = responders (CR, VGPR, PR; N=19), baseline to day 28

Compound	Fold Change, Decreased Expression from Baseline to Day 28 [2]	Fold Change, Increased Expression from Baseline to Day 28 [2]	other results
N#CCC1(n2cc(-c3ncnc4[nH]ccc34)cn2)CN(C2CCN(C(=O)c3ccnc(C(F)(F)F)c3F)CC2)C1 [itacitinib, {1-{1-[3-Fluoro-2-(trifluoromethyl)isonicotinoyl]piperidin-4-yl}-3-[4-(7H-pyrrolo[2,3-d]pyrimidin-4-yl)-1H-pyrazol-1-yl]azetidin-3-yl}acetonitrile]	–	–	proteins from Table 11 that did not modulate in complete responders [1]: 89; proteins significantly elevated [2, 4]: 105; proteins significantly reduced [2, 4]: 248; total proteins significantly modulated by treatment [2, 4]: 353; Clinical response between the two itacitinib doses ([3]; 200 mg vs 300 mg once daily (QD) + corticosteroids): not significantly different; overall responses ([3]; combination with corticosteroids, steroid naïve and refractory aGvHD patients): improved overall responses
ADGRG1	−1.1823	–	–
ADM	–	1.2035	–
ANXA11	−1.3456	–	–
APP	−1.5208	–	–
ARHGEF12	−1.8347	–	–
ARSB	−1.3432	–	–
AXIN1	−1.8046	–	–
CA13	−1.8816	–	–
CBL	−1.7183	–	–
CCL11	–	1.2818 and 1.3146	–
CD27	−1.6873	–	–
CD38	−1.4181	–	–
CLEC1B	−1.7033	–	–
COL4A1	−1.2699	–	–
CXCL5	−1.7254	–	–
DECR1	−1.4327	–	–
DEFA1	−1.9173	–	–
DKN1A	−1.4302	–	–
DNAJB1	−1.7332	–	–
DSC2	−1.3652	–	–

Compound	Fold Change, Decreased Expression from Baseline to Day 28 [2]	Fold Change, Increased Expression from Baseline to Day 28 [2]	other results
EIF4G1	−1.5969	–	–
ERBB2	–	1.1968	–
EZR	–	1.1031	–
FABP2	–	3.5893	–
FGR	−1.4406	–	–
FKBP1B	−1.9994	–	–
FURIN	–	1.2365	–
GAL (GWTLNSAGYLLGPHAVGNHRSFSDKNGLTS; Galanin; UniProt P22466 33-62, looked up)	–	1.6888	–
GCG	–	1.8922	–
Gal-3	–	1.3504	–
HAVCR2	−1.312	–	–
HDGF	−1.3392	–	–
HGF	−1.5542	–	–
IGF1R	–	1.2432	–
IGF2R	–	1.1734	–
IL6	–	2.0047 and 1.8649 and 1.7278	–
IQGAP2	−1.5317	–	–
ITGB2	−1.6877	–	–
LILRA5	−1.342	–	–
LTBP2	–	1.1874	–
LY75	−1.1401	–	–

Compound	Fold Change, Decreased Expression from Baseline to Day 28 [2]	Fold Change, Increased Expression from Baseline to Day 28 [2]	other results
MAP4K5	−1.658	–	–
MAX	−1.449	–	–
MCP-1	–	1.6302 and 1.4322	–
METRNL	–	1.2013	–
MMP7	–	1.3986	–
MMP-1	−1.4112	–	–
MUC-16	–	1.6356	–
NCAM1	–	1.3216	–
NCR1	−1.3726	–	–
NEMO	−1.7984	–	–
NMNAT1	−1.4212	–	–
NRP1	−1.1237	–	–
NTRK2	–	1.118	–
NTRK3	–	1.2526	–
PAPPA	−1.3491	–	–
PDGF subunit A	−1.6021	–	–
PECAM-1	−1.2009	–	–
PIgR	–	1.1476	–
PLXNA4	−1.405	–	–
PPP1R9B	−1.6445	–	–
PPY (APLEPVYPGDNATPEQMAQYAADLRRYINMLTRPRY; ends and bridges not checked; UniProt P01298 30-65, looked up)	–	1.9703	–

Compound	Fold Change, Decreased Expression from Baseline to Day 28 [2]	Fold Change, Increased Expression from Baseline to Day 28 [2]	other results
PTX3	−1.5567	–	–
PXN	−1.329	–	–
SCARA5	–	1.1342	–
SCF	–	1.4714 and 1.3943 and 1.4058	–
SIGLEC1	−1.3842	–	–
STIP1	−1.2812	–	–
Siglec-9	−1.1514	–	–
THBS2	–	1.0963	–
THBS4	−1.7307	–	–
THPO	–	1.867	–
TIMP1	−1.2337	–	–
TNC	−1.6915	–	–
TNXB	−1.156	–	–
TOP2B	−1.7634	–	–
TPSAB1	−1.9835	–	–
TRIM5	−1.4743	–	–
TXNDC5	−1.4081	–	–
VSIG4	−1.5046	–	–
YES1	−1.9824	–	–
